Source: ChEMBL document CHEMBL2311291, “Novel P2 tris-tetrahydrofuran group in antiviral compound 1 (GRL-0519) fills the S2 binding pocket of selected mutants of HIV-1 protease” (J Med Chem, 2013)
pKi: −log10 of the molar value.

Experiments:
[1] = molecular target: Human immunodeficiency virus type 1 protease (Human immunodeficiency virus 1, UniProt Q72874, I54M); assay: Inhibition of HIV-1 protease I54M mutant using Abz-Thr-Ile-Nle-p-nitro-Phe-Gln-Arg-NH2 as substrate incubated for 5 mins prior to substrate addition measured for 5 mins by fluorescence assay
[2] = molecular target: Human immunodeficiency virus type 1 protease (Human immunodeficiency virus 1, UniProt Q72874, I50V); assay: Inhibition of HIV-1 protease I50V mutant using Abz-Thr-Ile-Nle-p-nitro-Phe-Gln-Arg-NH2 as substrate incubated for 5 mins prior to substrate addition measured for 5 mins by fluorescence assay
[3] = molecular target: Human immunodeficiency virus type 1 protease (Human immunodeficiency virus 1, UniProt Q72874, D30N); assay: Inhibition of HIV-1 protease D30N mutant using Abz-Thr-Ile-Nle-p-nitro-Phe-Gln-Arg-NH2 as substrate incubated for 5 mins prior to substrate addition measured for 5 mins by fluorescence assay
[4] = molecular target: Human immunodeficiency virus type 1 protease (Human immunodeficiency virus 1, UniProt Q72874, R8Q); assay: Inhibition of HIV-1 protease R8Q mutant using Abz-Thr-Ile-Nle-p-nitro-Phe-Gln-Arg-NH2 as substrate incubated for 5 mins prior to substrate addition measured for 5 mins by fluorescence assay
[5] = molecular target: Protease (Human immunodeficiency virus 1, UniProt Q9YQ12); assay: Inhibition of HIV-1 wildtype protease using Abz-Thr-Ile-Nle-p-nitro-Phe-Gln-Arg-NH2 as substrate incubated for 5 mins prior to substrate addition measured for 5 mins by fluorescence assay
[6] = test system: Human immunodeficiency virus 1; assay: Ratio of Ki for HIV-1 protease V82A mutant to Ki for HIV-1 wildtype protease
[7] = test system: Human immunodeficiency virus 1; assay: Ratio of Ki for HIV-1protease I54M mutant to Ki for HIV-1 wildtype protease
[8] = test system: Human immunodeficiency virus 1; assay: Ratio of Ki for HIV-1 protease D30N mutant to Ki for HIV-1 wildtype protease
[9] = test system: Human immunodeficiency virus 1; assay: Ratio of Ki for HIV-1 protease I50V mutant to Ki for HIV-1 wildtype protease
[10] = molecular target: Human immunodeficiency virus type 1 protease (Human immunodeficiency virus 1, UniProt Q72874, V82A); assay: Inhibition of HIV-1 protease V82A mutant using Abz-Thr-Ile-Nle-p-nitro-Phe-Gln-Arg-NH2 as substrate incubated for 5 mins prior to substrate addition measured for 5 mins by fluorescence assay
[11] = test system: Human immunodeficiency virus 1; assay: Ratio of Ki for HIV-1 protease R8Q mutant to Ki for HIV-1 wildtype protease

Chain of Protease (Q9YQ12 whole entry): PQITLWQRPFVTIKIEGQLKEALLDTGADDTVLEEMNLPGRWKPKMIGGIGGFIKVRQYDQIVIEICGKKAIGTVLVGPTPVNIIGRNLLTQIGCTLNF

Q: Which results are given for `COc1ccc(S(=O)(=O)N(CC(C)C)C[C@@H](O)[C@H](Cc2ccccc2)NC(=O)O[C@H]2CO[C@H]3O[C@@H]4OCC[C@@H]4[C@H]32)cc1`?
A: pKi [1]: 8.46; pKi [2]: 7.51; pKi [3]: 8.05; pKi [4]: 8.92; pKi [5]: 9.30; Ratio Ki [6]: 6; Ratio Ki [7]: 7; Ratio Ki [8]: 18; Ratio Ki [9]: 60; pKi [10]: 8.49; Ratio Ki [11]: 2
